Values of other authors, collected in US20080146534A1, “PHARMACEUTICAL COMPOSITION FOR REDUCING THE RISKS ASSOCIATED WITH CARDIOVASCULAR AND CEREBROVASCULAR DISEASES” (priority 2006, published 2008).

Conditions: at clinical doses

O=C1CCc2cc(OCCCCc3nnnn3C3CCCCC3)ccc2N1 [Cilostazol, 6-[4-(1-cyclohexyl-1H-tetrazol-5-yl)butoxy]-3,4-dihydro-2(1H)-quinolinon]
increase in heart rate: about 7 beats/minute | ventricular premature beat (VPB) rate (small increase from 1/hour): 4 h⁻¹
